Assays:
N2 WT C. elegans = assay: F3-IsoP quantification by GC/MS, N2; type: in vivo; conditions: Day 1 of adulthood until Day 15
Source text: (§1) One of the major stimuli for activation of sirtuins is oxidative stress. […] Indeed, the mitochondrial antioxidant manganese superoxide dismutase (MnSOD) has been identified as one of the major protein targets that is deacetylated by sirtuin isoforms, with deacetylation enhancing the enzymatic activity of MnSOD [60]. If SA indeed preserves SIR-2.1 enzymatic function in vivo, the present inventors hypothesized that SA treatment would dose-dependently decrease biomarkers of oxidant injury in a SIR-2.1-dependent manner. To quantify oxidant injury, the present inventors measured F3-isoprostanes (F3-IsoPs). […] To further characterize SA's ability to preserve SIR-2.1 function, the present inventors assessed acetylation of MnSOD at Lys 122.
F3-Isoprostanes were quantified from SA-treated worms a gas-chromatography-negative ion chemical ionization-mass spectrometry (GC-NICI-MS) approach. […]
Samples were spiked with 248 pg of deuterated internal standards, [^2H4]-15-F2t-IsoP, quantified and calibrated by the method of Milne et al. and acidified to pH<3 with HCl in preparation for further Separation Phase Extraction (SPE). […]
Eluates were dried under nitrogen and F3—IsoPs and resuspended in MeOH for separation by Thin Layer Chromatography (TLC). […] Deuterated F2-IsoP standard was measured at m/z 573. F3—IsoP was measured at m/z 567. […]

[1] = test system: intact cells exposed to hydrogen peroxide; conditions: SA pre-treatment, vehicle control 95% cell death; cited from earlier work
MnSOD = assay: Western blot of acetyl-Lys 122 MnSOD; type: in vivo, C. elegans; conditions: 500 μM SA, day 15; WT N2 compared to VC199 treated with the same dose; P>0.05
Source text: as §1, with “(F3-IsoPs). F3-IsoPs are the products of free radical-mediated peroxidation of eicosapentaenoic acid (EPA), and are known to be a highly sensitive and accurate marker of oxidative damage in Caenorhabditis elegans. F3—IsoPs were collected from WT N2 and from VC199 (SIR-2.1 deficient strain) nematodes grown on OP50-NGM agar plates containing increasing concentrations of SA from Day 1 of adulthood until collection at Day 15.” for “(F3-IsoPs).”
Day 15 adult worms grown on FUDR containing SA-OP50-seeded NGM plates were harvested in M9 medium, followed by floatation on an ice-cold 60% w/v sucrose gradient to segregate clean bacteria-free adult worms from bacterial debris. […]

mice = conditions: cited from earlier work

## NCc1ccccc1O [SA, salicylamine]
N2 WT C. elegans; 100 μM SA, p<0.01
  decrease in F3-IsoP production: 29%
N2 WT C. elegans; 500 μM SA, p<0.005
  decrease in F3-IsoP levels: 44%
[1]
  occurrence in cell death: 5%
MnSOD
  acetyl-Lys 122 in MnSOD: trend toward lower acetyl-Lys 122
mice; approximately one year, via drinking water
  tolerability, adverse events: no evidence of intolerance and no evidence of excess adverse events
mice; long-term SA treatment
  tumor formation: No excess tumor formation

— patent US11633370B2, “Use of scavengers of reactive gamma-ketoaldehydes to extend cell lifespan and healthspan” (Vanderbilt University, priority 2016, dated 2023)
